Measured values as given in article PMC6533482, “Xanthatin inhibits STAT3 and NF‐κB signalling by covalently binding to JAK and IKK kinases” (Journal of Cellular and Molecular Medicine, 2019).

Columns and labels:
IKKβ [1] = target: T1, IKKβ (Homo sapiens, UniProt O14920); assay: in-gel fluorescence after click labelling of immunoprecipitated protein; assay type: binding
T1 construct: gene IKBKB; IKKβ-FLAG immunoprecipitated from HEK293 cells
T1 sequence (O14920 1-756): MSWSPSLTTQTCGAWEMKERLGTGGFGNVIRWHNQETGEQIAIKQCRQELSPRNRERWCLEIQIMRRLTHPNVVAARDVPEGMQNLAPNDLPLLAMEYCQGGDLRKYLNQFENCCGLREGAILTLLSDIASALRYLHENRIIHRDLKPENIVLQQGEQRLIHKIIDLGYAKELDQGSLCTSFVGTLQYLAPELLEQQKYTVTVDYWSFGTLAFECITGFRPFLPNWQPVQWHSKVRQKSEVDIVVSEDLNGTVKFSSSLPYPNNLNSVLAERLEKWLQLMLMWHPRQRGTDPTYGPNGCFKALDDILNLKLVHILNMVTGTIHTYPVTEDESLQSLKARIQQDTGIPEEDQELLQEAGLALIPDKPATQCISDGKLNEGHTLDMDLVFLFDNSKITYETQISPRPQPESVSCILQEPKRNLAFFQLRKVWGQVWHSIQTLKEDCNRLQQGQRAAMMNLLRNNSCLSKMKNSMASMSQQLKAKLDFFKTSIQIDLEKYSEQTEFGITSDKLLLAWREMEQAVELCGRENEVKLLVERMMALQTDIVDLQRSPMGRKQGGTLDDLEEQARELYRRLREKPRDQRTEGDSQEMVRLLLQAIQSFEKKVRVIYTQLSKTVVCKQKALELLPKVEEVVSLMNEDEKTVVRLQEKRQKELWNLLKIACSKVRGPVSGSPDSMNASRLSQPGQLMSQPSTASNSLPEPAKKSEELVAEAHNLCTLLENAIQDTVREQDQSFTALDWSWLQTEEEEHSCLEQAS

Tyk2 [2] = target: T2, Tyk2 (Homo sapiens, UniProt P29597); assay: click-chemistry pull-down from treated cells, competed by xanthatin; assay type: cell-based
T2 construct: endogenous, MDA-MB-231 cells
T2 sequence (P29597 whole entry): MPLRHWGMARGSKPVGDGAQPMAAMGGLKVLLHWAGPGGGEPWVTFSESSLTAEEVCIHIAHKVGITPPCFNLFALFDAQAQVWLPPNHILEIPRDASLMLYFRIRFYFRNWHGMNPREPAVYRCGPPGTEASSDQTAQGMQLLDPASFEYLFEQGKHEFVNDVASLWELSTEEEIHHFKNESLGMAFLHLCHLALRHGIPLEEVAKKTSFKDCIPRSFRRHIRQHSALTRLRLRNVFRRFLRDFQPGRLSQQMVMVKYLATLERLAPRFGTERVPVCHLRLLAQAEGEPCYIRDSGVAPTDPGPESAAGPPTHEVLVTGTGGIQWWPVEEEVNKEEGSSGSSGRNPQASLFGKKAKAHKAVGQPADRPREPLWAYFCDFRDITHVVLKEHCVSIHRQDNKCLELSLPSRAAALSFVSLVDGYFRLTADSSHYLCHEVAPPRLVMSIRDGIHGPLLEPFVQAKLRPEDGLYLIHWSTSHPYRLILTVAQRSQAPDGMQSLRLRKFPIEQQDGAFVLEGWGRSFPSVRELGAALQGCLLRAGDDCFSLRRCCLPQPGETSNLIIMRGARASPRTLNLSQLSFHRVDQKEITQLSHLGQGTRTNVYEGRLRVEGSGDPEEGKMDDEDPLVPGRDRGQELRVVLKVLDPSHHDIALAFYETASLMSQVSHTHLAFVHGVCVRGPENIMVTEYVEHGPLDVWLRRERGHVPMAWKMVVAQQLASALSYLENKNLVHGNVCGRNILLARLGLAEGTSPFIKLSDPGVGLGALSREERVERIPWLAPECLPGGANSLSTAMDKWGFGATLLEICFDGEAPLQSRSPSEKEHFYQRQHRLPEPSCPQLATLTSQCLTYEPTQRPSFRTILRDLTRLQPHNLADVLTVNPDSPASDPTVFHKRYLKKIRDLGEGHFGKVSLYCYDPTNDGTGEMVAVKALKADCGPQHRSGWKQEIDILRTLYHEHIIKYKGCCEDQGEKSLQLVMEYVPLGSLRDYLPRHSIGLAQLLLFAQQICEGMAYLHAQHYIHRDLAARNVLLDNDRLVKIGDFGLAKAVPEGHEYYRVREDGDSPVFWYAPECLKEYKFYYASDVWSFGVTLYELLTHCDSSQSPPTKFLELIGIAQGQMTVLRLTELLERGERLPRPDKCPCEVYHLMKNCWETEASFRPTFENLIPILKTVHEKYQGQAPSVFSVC

JAK2 [3] = target: T3, JAK2 (Homo sapiens, UniProt O60674); assay: in-gel fluorescence after click labelling of immunoprecipitated protein; assay type: binding
T3 construct: JAK2-FLAG immunoprecipitated from HEK293 cells
T3 sequence (O60674 whole entry): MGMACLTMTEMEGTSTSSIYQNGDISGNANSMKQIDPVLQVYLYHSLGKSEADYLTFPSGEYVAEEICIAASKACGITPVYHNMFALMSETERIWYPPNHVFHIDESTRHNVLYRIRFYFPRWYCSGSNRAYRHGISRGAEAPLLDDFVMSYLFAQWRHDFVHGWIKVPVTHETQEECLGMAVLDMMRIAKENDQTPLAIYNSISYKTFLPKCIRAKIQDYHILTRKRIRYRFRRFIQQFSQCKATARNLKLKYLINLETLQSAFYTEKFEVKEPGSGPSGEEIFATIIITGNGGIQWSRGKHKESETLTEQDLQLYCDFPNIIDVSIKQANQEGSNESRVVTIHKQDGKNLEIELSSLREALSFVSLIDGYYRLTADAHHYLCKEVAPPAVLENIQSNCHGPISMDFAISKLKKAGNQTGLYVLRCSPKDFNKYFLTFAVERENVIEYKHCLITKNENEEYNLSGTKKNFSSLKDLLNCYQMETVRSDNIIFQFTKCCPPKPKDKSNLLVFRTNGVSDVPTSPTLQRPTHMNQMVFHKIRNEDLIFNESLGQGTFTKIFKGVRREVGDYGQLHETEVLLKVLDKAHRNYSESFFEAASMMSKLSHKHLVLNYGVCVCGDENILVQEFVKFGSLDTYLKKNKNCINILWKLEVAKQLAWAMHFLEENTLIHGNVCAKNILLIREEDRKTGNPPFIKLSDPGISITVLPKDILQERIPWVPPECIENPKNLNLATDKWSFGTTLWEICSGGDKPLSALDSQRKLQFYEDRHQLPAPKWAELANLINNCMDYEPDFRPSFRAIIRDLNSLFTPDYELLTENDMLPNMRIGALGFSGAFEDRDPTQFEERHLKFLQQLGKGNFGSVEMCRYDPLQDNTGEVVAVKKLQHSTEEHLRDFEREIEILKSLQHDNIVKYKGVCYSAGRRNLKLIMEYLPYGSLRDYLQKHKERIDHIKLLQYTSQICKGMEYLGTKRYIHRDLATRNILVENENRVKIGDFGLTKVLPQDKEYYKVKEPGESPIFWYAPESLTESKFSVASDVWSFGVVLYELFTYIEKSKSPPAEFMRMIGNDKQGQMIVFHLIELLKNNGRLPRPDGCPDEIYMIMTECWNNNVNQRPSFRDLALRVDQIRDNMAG

JAK1 [4] = target: T4, JAK1 (Homo sapiens, UniProt P23458); assay: click-chemistry pull-down from treated cells, competed by xanthatin; assay type: cell-based
T4 construct: endogenous, MDA-MB-231 cells
T4 sequence (P23458 whole entry): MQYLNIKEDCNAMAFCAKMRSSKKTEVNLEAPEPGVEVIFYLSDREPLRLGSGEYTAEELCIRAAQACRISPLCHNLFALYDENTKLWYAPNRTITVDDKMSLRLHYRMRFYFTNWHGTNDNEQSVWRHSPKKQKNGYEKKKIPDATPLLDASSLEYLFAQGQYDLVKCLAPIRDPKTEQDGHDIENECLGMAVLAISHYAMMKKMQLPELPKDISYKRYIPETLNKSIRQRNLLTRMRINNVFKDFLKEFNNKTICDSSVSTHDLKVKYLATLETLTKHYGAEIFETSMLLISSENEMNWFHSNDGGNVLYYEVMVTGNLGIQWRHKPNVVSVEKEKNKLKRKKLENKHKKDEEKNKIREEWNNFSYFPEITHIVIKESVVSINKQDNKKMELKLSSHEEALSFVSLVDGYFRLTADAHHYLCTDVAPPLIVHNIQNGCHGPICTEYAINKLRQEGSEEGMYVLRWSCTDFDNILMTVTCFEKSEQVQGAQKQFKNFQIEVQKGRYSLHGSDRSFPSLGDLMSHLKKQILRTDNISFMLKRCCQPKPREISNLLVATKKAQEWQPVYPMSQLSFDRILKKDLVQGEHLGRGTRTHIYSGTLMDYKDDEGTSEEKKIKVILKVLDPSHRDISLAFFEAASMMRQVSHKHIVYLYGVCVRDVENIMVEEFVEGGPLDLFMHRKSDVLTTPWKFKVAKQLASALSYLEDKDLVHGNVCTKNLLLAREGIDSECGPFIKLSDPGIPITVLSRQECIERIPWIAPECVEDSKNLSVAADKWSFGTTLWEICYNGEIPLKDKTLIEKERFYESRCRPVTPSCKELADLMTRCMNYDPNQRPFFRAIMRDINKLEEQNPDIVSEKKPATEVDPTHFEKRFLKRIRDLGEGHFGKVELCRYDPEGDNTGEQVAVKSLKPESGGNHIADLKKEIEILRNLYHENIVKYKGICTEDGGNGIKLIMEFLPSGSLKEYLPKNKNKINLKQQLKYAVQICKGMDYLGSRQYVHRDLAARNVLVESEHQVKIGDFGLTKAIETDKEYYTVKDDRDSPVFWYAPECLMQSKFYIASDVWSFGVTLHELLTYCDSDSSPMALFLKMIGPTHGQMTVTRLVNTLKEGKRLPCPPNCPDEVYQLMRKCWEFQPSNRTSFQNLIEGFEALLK

IKKα [5] = target: T5, IKKα (Homo sapiens, UniProt O15111); assay: as above; assay type: cell-based
T5 construct: gene CHUK; endogenous, MDA-MB-231 cells
T5 sequence (O15111 1-745): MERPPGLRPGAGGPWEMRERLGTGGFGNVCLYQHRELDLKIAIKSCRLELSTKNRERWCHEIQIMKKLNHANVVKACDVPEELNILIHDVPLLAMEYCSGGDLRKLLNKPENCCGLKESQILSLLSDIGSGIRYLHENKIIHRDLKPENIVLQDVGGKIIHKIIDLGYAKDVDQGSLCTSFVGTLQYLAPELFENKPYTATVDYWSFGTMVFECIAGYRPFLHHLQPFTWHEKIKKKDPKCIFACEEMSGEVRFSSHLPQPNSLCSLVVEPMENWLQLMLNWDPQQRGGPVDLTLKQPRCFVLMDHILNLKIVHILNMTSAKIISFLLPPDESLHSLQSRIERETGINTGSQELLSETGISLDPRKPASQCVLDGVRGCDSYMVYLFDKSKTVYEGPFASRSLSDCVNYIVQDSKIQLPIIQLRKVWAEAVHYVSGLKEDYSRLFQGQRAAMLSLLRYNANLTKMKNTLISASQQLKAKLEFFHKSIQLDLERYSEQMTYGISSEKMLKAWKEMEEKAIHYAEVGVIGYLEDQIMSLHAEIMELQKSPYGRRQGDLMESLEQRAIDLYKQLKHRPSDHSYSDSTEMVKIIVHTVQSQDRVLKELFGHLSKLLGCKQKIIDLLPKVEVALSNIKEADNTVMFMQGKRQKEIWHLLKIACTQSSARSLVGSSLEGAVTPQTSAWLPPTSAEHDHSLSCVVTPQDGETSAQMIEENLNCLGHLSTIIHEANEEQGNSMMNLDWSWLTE

IKKβ [6] = target: T1, IKKβ; assay: in vitro kinase assay with immunoprecipitated IKKβ; adducts confirmed by LC-MS/MS; assay type: biochemical
IKKα [7] = target: T5, IKKα; assay: competition of Alk-Xa pull-down in cells; assay type: cell-based
JAK1 [8] = target: T4, JAK1; assay: competition of Alk-Xa pull-down in cells; assay type: cell-based
JAK2 [9] = target: T3, JAK2; assay: in vitro kinase assay with immunoprecipitated JAK2; adduct confirmed by LC-MS/MS; assay type: biochemical
Tyk2 [10] = target: T2, Tyk2; assay: competition of Alk-Xa pull-down in cells; assay type: cell-based

Row | SMILES | in-gel fluorescence after click labelling of immunoprecipitated protein (IKKβ [1]) | click-chemistry pull-down from treated cells, competed by xanthatin (Tyk2 [2]) | in-gel fluorescence after click labelling of immunoprecipitated protein (JAK2 [3]) | click-chemistry pull-down from treated cells, competed by xanthatin (JAK1 [4]) | click-chemistry pull-down from treated cells, competed by xanthatin (IKKα [5]) | IC50 (IKKβ [6]) | competition of Alk-Xa pull-down in cells (IKKα [7]) | competition of Alk-Xa pull-down in cells (JAK1 [8]) | IC50 (JAK2 [9]) | competition of Alk-Xa pull-down in cells (Tyk2 [10])
1 | C#CCNC(=O)/C=C/C1=CC[C@@H]2C(=C)C(=O)O[C@H]2C[C@@H]1C [Alk-Xa, Alk‐Xa] | fluorescence intensity of JAK2 and IKKβ was proportional to the dosage of Alk‐Xa, indicating that Alk‐Xa covalently bound | JAK1, JAK2, Tyk2, IKKα and IKKβ were pulled down with the Alk‐Xa | fluorescence intensity of JAK2 and IKKβ was proportional to the dosage of Alk‐Xa, indicating that Alk‐Xa covalently bound | JAK1, JAK2, Tyk2, IKKα and IKKβ were pulled down with the Alk‐Xa | JAK1, JAK2, Tyk2, IKKα and IKKβ were pulled down with the Alk‐Xa |  |  |  |  | 
2 | C=C1C(=O)O[C@H]2C[C@H](C)C(/C=C/C(C)=O)=CC[C@H]12 [Xa, xanthatin] |  |  |  |  |  | 11.3 µM | the interactions could be competed away by excessive unlabelled xanthatin | the interactions could be competed away by excessive unlabelled xanthatin | 4.08 µM | the interactions could be competed away by excessive unlabelled xanthatin
